Test results from patent US8192717B2, “Composition for diagnosing amyloid-related diseases” (Nagasaki University, priority 2004, dated 2012).

Assay: Radioactivity distribution in mouse body after intravenous administration of radioiodine labeled forms
Settings: mouse, intravenous administration, mean (SD) of 3 to 5 mice
Description: Thereafter, 100 μl (0.5 to 1 μCi) of each labeled form was intravenously administered to each group consisting of three to five 5-week-old ddY male mice (25 to 30 g). 2, 10, 30, and 60 minutes after the intravenous administration, such mice were decapitated, and blood was collected. Thereafter, organs were excised, and the weight and radioactivity thereof were then measured.

| Distribution of radioactivity, Blood (2 min after administration) | Distribution of radioactivity, Blood (10 min after administration) | Distribution of radioactivity, Blood (30 min after administration) | Distribution of radioactivity, Blood (60 min after administration) | Distribution of radioactivity, Brain (2 min after administration) | Distribution of radioactivity, Brain (10 min after administration) | Distribution of radioactivity, Brain (30 min after administration) | Distribution of radioactivity, Brain (60 min after administration) | Distribution of radioactivity, Heart (2 min after administration) | Distribution of radioactivity, Heart (10 min after administration) | Distribution of radioactivity, Heart (30 min after administration) | Distribution of radioactivity, Heart (60 min after administration) | Distribution of radioactivity, Intestine (2 min after administration) | Distribution of radioactivity, Intestine (10 min after administration) | Distribution of radioactivity, Intestine (30 min after administration) | Distribution of radioactivity, Intestine (60 min after administration) | Distribution of radioactivity, Kidney (2 min after administration) | Distribution of radioactivity, Kidney (10 min after administration) | Distribution of radioactivity, Kidney (30 min after administration) | Distribution of radioactivity, Kidney (60 min after administration) | Compound | other results |
| --- | --- | --- | --- | --- | --- | --- | --- | --- | --- | --- | --- | --- | --- | --- | --- | --- | --- | --- | --- | --- | --- |
| 1.89 (0.28) % ID/g | 1.39 (0.10) % ID/g | 1.34 (0.07) % ID/g | 1.50 (0.09) % ID/g | 4.12 (0.15) % ID/g | 3.68 (0.18) % ID/g | 1.84 (0.12) % ID/g | 1.19 (0.04) % ID/g | 4.87 (0.66) % ID/g | 2.66 (0.12) % ID/g | 1.67 (0.14) % ID/g | 1.28 (0.12) % ID/g | 3.10 (0.61) % ID/g | 7.91 (1.05) % ID/g | 12.84 (1.18) % ID/g | 21.48 (3.17) % ID/g | 8.13 (1.28) % ID/g | 5.21 (0.44) % ID/g | 3.85 (0.33) % ID/g | 3.05 (0.25) % ID/g | CNc1ccc(-c2cc(=O)c3cc([125I])ccc3o2)cc1 [[125I]Compound 10] | Distribution of radioactivity, Liver (2 min after administration): 16.28 (0.90) % ID/g; Distribution of radioactivity, Liver (10 min after administration): 25.28 (0.31) % ID/g; Distribution of radioactivity, Liver (30 min after administration): 18.61 (1.81) % ID/g; Distribution of radioactivity, Liver (60 min after administration): 15.14 (0.89) % ID/g; Distribution of radioactivity, Spleen (2 min after administration): 2.57 (1.54) % ID/g; Distribution of radioactivity, Spleen (10 min after administration): 2.31 (0.01) % ID/g; Distribution of radioactivity, Spleen (30 min after administration): 1.76 (0.23) % ID/g; Distribution of radioactivity, Spleen (60 min after administration): 1.52 (0.29) % ID/g |
| 2.34 (0.16) % ID/g | 2.44 (0.19) % ID/g | 2.56 (0.64) % ID/g | 2.27 (0.47) % ID/g | 4.88 (0.47) % ID/g | 4.40 (0.44) % ID/g | 2.78 (0.72) % ID/g | 1.62 (0.40) % ID/g | 8.40 (0.47) % ID/g | 3.78 (0.35) % ID/g | 2.43 (0.70) % ID/g | 1.64 (0.29) % ID/g | 2.84 (0.18) % ID/g | 5.51 (0.55) % ID/g | 11.71 (1.27) % ID/g | 16.08 (2.44) % ID/g | 11.94 (1.49) % ID/g | 6.99 (0.91) % ID/g | 4.91 (1.07) % ID/g | 3.76 (0.91) % ID/g | Nc1ccc(C=Cc2cc(=O)c3cc([125I])ccc3o2)cc1 [[125I]Compound 46] | Distribution of radioactivity, Liver (2 min after administration): 13.23 (1.65) % ID/g; Distribution of radioactivity, Liver (10 min after administration): 14.49 (1.10) % ID/g; Distribution of radioactivity, Liver (30 min after administration): 10.27 (1.84) % ID/g; Distribution of radioactivity, Liver (60 min after administration): 8.16 (1.33) % ID/g; Distribution of radioactivity, Spleen (2 min after administration): 4.23 (0.62) % ID/g; Distribution of radioactivity, Spleen (10 min after administration): 3.64 (0.38) % ID/g; Distribution of radioactivity, Spleen (30 min after administration): 2.92 (0.73) % ID/g; Distribution of radioactivity, Spleen (60 min after administration): 2.16 (0.85) % ID/g |
| 1.87 (0.21) % ID/g | 1.19 (0.17) % ID/g | 0.40 (0.01) % ID/g | 0.23 (0.09) % ID/g | 4.00 (0.18) % ID/g | 2.36 (0.33) % ID/g | 0.51 (0.07) % ID/g | 0.17 (0.05) % ID/g | 4.98 (0.41) % ID/g | 2.25 (0.40) % ID/g | 0.84 (0.14) % ID/g | 0.47 (0.22) % ID/g | 3.52 (0.29) % ID/g | 14.39 (0.80) % ID/g | 22.51 (1.11) % ID/g | 30.05 (3.61) % ID/g | 7.99 (1.08) % ID/g | 6.30 (1.02) % ID/g | 4.51 (1.59) % ID/g | 1.46 (1.12) % ID/g | COc1ccc(-c2cc(=O)c3cc([125I])ccc3o2)cc1 [[125I]Compound 19] | Distribution of radioactivity, Liver (2 min after administration): 8.96 (1.48) % ID/g; Distribution of radioactivity, Liver (10 min after administration): 9.01 (0.97) % ID/g; Distribution of radioactivity, Liver (30 min after administration): 3.75 (0.47) % ID/g; Distribution of radioactivity, Liver (60 min after administration): 1.88 (0.61) % ID/g; Distribution of radioactivity, Spleen (2 min after administration): 2.70 (0.08) % ID/g; Distribution of radioactivity, Spleen (10 min after administration): 1.38 (0.37) % ID/g; Distribution of radioactivity, Spleen (30 min after administration): 0.55 (0.30) % ID/g; Distribution of radioactivity, Spleen (60 min after administration): 3.67 (5.89) % ID/g |
| 1.87 (0.18) % ID/g | 1.07 (0.08) % ID/g | 1.20 (0.15) % ID/g | 1.15 (0.16) % ID/g | 3.22 (0.15) % ID/g | 3.61 (0.60) % ID/g | 1.89 (0.21) % ID/g | 0.99 (0.10) % ID/g | 5.63 (0.80) % ID/g | 2.47 (0.14) % ID/g | 1.69 (0.06) % ID/g | 1.07 (0.17) % ID/g | 2.24 (0.24) % ID/g | 6.56 (0.83) % ID/g | 12.97 (1.15) % ID/g | 18.64 (2.05) % ID/g | 8.33 (1.47) % ID/g | 4.31 (0.28) % ID/g | 3.40 (0.31) % ID/g | 2.32 (0.45) % ID/g | CN(C)c1ccc(-c2cc(=O)c3cc([125I])ccc3o2)cc1 [[125I]Compound 11] | Distribution of radioactivity, Liver (2 min after administration): 15.41 (0.98) % ID/g; Distribution of radioactivity, Liver (10 min after administration): 21.85 (2.14) % ID/g; Distribution of radioactivity, Liver (30 min after administration): 15.71 (0.96) % ID/g; Distribution of radioactivity, Liver (60 min after administration): 12.40 (2.38) % ID/g; Distribution of radioactivity, Spleen (2 min after administration): 2.72 (0.20) % ID/g; Distribution of radioactivity, Spleen (10 min after administration): 1.92 (0.33) % ID/g; Distribution of radioactivity, Spleen (30 min after administration): 1.58 (0.31) % ID/g; Distribution of radioactivity, Spleen (60 min after administration): 1.18 (0.17) % ID/g |
| 3.21 (0.38) % ID/g | 2.44 (0.082) % ID/g | 2.19 (0.29) % ID/g | 1.79 (0.23) % ID/g | 2.84 (0.35) % ID/g | 2.96 (0.25) % ID/g | 1.86 (0.30) % ID/g | 0.99 (0.09) % ID/g | 6.92 (1.41) % ID/g | 3.31 (0.69) % ID/g | 2.09 (0.39) % ID/g | 1.47 (0.27) % ID/g | 2.59 (0.38) % ID/g | 8.55 (1.21) % ID/g | 16.72 (2.58) % ID/g | 19.16 (2.63) % ID/g | 10.41 (1.33) % ID/g | 7.05 (0.56) % ID/g | 5.48 (0.97) % ID/g | 3.52 (1.36) % ID/g | CNc1ccc(C=Cc2cc(=O)c3cc([125I])ccc3o2)cc1 [[125I]Compound 47] | Distribution of radioactivity, Liver (2 min after administration): 14.55 (2.64) % ID/g; Distribution of radioactivity, Liver (10 min after administration): 14.41 (2.52) % ID/g; Distribution of radioactivity, Liver (30 min after administration): 11.13 (1.63) % ID/g; Distribution of radioactivity, Liver (60 min after administration): 7.82 (0.94) % ID/g; Distribution of radioactivity, Spleen (2 min after administration): 3.88 (0.74) % ID/g; Distribution of radioactivity, Spleen (10 min after administration): 4.42 (1.05) % ID/g; Distribution of radioactivity, Spleen (30 min after administration): 2.66 (0.47) % ID/g; Distribution of radioactivity, Spleen (60 min after administration): 1.51 (0.19) % ID/g |
